Source: patent US7419999B2, “Gamma lactams as prostaglandin agonists and use thereof” (Applied Research Systems ARS Holding N.V., priority 2002, dated 2008)
Like-named read-outs stand apart in the source and are kept apart here.

Tests used:
[1] = test system: mature 10-week CD-1 mice; assay: In vivo ovulation assay (mature mouse ovulation induction model); conditions: for ED50: Mus musculus; for average of ova obtained: 5IU PMSG priming
Description: Ovulation triggering activity of compounds of the invention are tested in a mature mouse ovulation induction model.
Mature 10-week-old CD-mice are used. […] A test compound (based on solubility) is pre-dissolved in ethanol, DMSO or other reagents. Test compound is then diluted with saline or other diluents such as PBS or NP3S (5% N-methyl-pyrrolidinone/30% PEG-400/25% PEG-200/20% Propylene Glycol in saline). PMSG serves to stimulate follicule growth and maturation.
Uterus, oviducts and ovaries were collected and placed in pre-labeled dishes containing phosphate buffered saline (PBS). The collected tissues were transferred to the laboratory and intact oviduct carefully dissected out from uterus and ovary under the dissection microscope. The dissected oviducts were placed on the glass microscopic slide and covered with another slide. Two slides were taped on two edges. The numbers of ovulated ova in the oviducts were counted using upright microscope with 4× objective and recorded.
For evaluating the oral activity of this compound, two experiments were conducted, the first experiment was conducted with non-fasted animals and the second experiment was conducted in 24 h fasted animals (water provided). The compounds of the invention, according to their solubility are pre-dissolved in ethanol, DMSO or other reagents. The compounds of the invention are then diluted with saline or other diluents such as PBS or NP3S before oral administration.

[2] = target: T1, h-EP4 (Homo sapiens, UniProt P35408); assay: EP4 receptor binding assay (3H-PGE2 SPA)
T1 sequence (P35408 whole entry): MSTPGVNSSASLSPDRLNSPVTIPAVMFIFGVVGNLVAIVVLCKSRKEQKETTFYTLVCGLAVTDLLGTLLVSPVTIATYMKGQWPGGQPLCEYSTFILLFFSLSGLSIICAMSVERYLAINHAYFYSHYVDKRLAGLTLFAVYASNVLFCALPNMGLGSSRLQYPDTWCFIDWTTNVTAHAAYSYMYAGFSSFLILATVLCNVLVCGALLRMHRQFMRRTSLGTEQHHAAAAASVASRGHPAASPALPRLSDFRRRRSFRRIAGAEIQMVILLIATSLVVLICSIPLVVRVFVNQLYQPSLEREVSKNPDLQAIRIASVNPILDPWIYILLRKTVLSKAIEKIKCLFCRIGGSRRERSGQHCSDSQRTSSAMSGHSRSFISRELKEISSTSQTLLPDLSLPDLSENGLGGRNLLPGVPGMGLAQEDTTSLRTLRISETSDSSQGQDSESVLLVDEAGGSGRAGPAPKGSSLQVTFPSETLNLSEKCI
Description: Compounds of the invention were tested in an EP4 receptor binding assay of the following protocol.

[3] = target: h-EP2 (Homo sapiens, UniProt P43116); assay: Prostaglandin EP2 receptor binding assay (3H-PGE2 SPA)
Sequence of h-EP2 (P43116 whole entry): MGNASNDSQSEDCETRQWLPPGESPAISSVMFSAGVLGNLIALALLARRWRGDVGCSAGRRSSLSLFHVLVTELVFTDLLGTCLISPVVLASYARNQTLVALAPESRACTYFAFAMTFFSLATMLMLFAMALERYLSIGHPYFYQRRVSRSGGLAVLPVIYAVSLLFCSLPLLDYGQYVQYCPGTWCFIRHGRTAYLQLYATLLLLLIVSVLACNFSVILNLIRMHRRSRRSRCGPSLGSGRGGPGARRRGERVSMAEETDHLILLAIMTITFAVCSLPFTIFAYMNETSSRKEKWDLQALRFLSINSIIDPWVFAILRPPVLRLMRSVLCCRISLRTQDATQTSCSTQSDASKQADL
Description: Compounds of the invention were tested in an EP2 receptor binding assay of the following protocol. As referred to herein, the term an “EP2 receptor binding assay” designates the following protocol.

[4] = target: T1, h-EP4; assay: EP4 cAMP assay in HEK293-EBNA cells transfected with pCEP4-hEP4; type: cell-based
Description: Compounds of the invention were tested in a total cAMP assay as follows. […] After overnight incubation, the medium was removed from each well and replaced with 45 μl of assay medium consisted of phenol red free D-MEM/F-12, 0.1% BSA (GibcoBRL) and 0.1 mM3-isobutyl-1-methyl-xanthine (Sigma). […] Total cAMP (intra- and extra-cellular) was measured by using a cAMP-screen ELISA System (Tropix, #CS1000).

[5] = test system: methacholine-induced bronchoconstriction; assay: In vivo inhibition of guinea pig methacholine-induced bronchoconstriction; conditions: for ED50: Cavia porcellus
Description: Guinea pig pulmonary-cholinergic in vivo model is generally used to test the materials for the treatments of asthma in human (Fleisch at al. 1985, K. Pharmacol. Exp. Ther. 233: 148-157). Compounds of the invention are tested in this model.
Groups of 3 Duncan Hartley derived male or female guinea pigs weighing 250±50 g are anesthetized with pentobarbital sodium (50 mg/kg i.p., plus an additional 15 mg/kg i.p. if required) and succinylcholine chloride (2 mg/animal i.p.) is subsequently administered to prevent spontaneous respiration. Body temperature is maintained at 37° to 38° C.
The trachea is cannulated and the guinea pig is ventilated with a Harvard rodent respirator in a closed system. Tracheal pressure is recorded through a side-arm of the cannula connected to a P23ID Statham transducer. Respiratory rate is set at 50 strokes/minute with a stroke volume (approximately 1 ml/100 g) sufficient to produce a baseline tracheal pressure of 6 cm H2O. Mean arterial pressure (BP) is monitored from a cannulated carotid artery, and heart-rate (HR) is obtained from chest electrodes arranged for lead II. The jugular vein is cannulated for i.v. vehicle or drug administration in a volume of 1 ml/kg.
Cholinergic-induced bronchoconstrictor responses, reflected as increases in tracheal pressure (cm H2O), are elicited by administration of methacholine hydrochloride (10 μg/kg base weight i.v.). In vehicle-treated control animals, methacholine-induced bronchoconstriction ranges from 70 to 90 percent of its own maximum response (about 40 to 65 percent of maximum possible bronchoconstriction obtained by tracheal occlusion).
Compounds of the invention are also tested via intratracheal (IT) route of administration. In this other experiment, compound of the invention, reference compound or vehicle is administered IT 10 (5 min for experiment 1 and 2) minutes before methacholine chloride (10 μg/kg i.v.) induced bronchoconstriction. Tracheal pressure (ITP), blood pressure and heart rate are measured immediately as indicated in the material and methods sections.
MED (medium effective dose) is measured.
Compounds of the invention are administered i.v. (10 mg/kg) 5 minutes before subministration of the methacoline hydrochloride challenge in 3 guinea pigs. A 50 percent or more (≧50) inhibition of the induced bronchoconstriction relative to vehicle treated control animals is considered significant.

[6] = test system: TNFα; assay: In vivo inhibition of LPS-induced TNFa release in mice; conditions: oral; Inhibitory Dose at 50% of the maximum effect
Description: The anti-inflammatory activity of compounds of the invention may be assessed after a LPS challenge using the following protocol:
Eight weeks old C3H/HEN mice (IFFA-CREDO, L'arbresle, France) receive an oral treatment with compounds of the invention 6 different doses (0.001, 0.01, 0.1, 1 or 3 and 10 mg/kg in 0.5% CMC/0.25% tween-20). Six mice are used by group. Fifteen minutes later, endotoxins (O111:B4 Sigma, 0.3 mg/kg) are intraperitoneally injected. Heparinized whole blood is collected by decapitation. TNFα level is determined in plasma by ELISA (R & D Systems, Abdingdon, UK). Control animals receive 0.5% CMC/0.25% tween-20 (10 ml/kg) as vehicle. Data obtained from experiments are expressed as the mean±SEM and analysed using one-way analysis of variance (ANOVA) followed by Dunnett's t-test.

[7] = po, Table 3, p.o., read-out: Ovulation Induction (ED50, mg/kg) p.o.
[8] = sc, Table 3, s.c., read-out: Ovulation Induction (ED50, mg/kg) s.c.
[9] = Table 2, total cAMP, read-out: h-EP4 EC50
[10] = read-out: Ki measured as described in Example 83 (EP4)
[11] = sc, read-out: calculated ED50, ovulation induction

CCCCC(C)(C)C(O)/C=C/[C@H]1CCC(=O)N1CCc1ccc(C(=O)O)cc1 (stereo in doubt) [Example 5, 4-(2-{2-[(1E,3S)-3-hydroxy-4,4-dimethyloct-1-enyl]-5-oxopyrrolidin-1-yl}ethyl)benzoic acid]
ED50 [1, 7]: 18 mg/kg | ED50 [1, 8]: 3 mg/kg | Ki ([2]; Table 1, read-out: h-EP4 Ki): 0.732 nM | Ki ([3]; Table 1, read-out: h-EP2 Ki): 1240 nM | EC50 [4, 9]: 0.014 nM

CCCCC(C)(C)C(O)/C=C/[C@H]1CCC(=O)N1CCc1ccc(C(=O)O)cc1 (stereo in doubt) [Example 6, 4-(2-{2-[(1E,3R)-3-hydroxy-4,4-dimethyloct-1-enyl]-5-oxopyrrolidin-1-yl}ethyl)benzoic acid]
Ki ([2]; Table 1, read-out: h-EP4 Ki): 20 nM | Ki ([3]; Table 1, read-out: h-EP2 Ki): 2100 nM

O=C(O)c1ccc(CCN2C(=O)CCN2CCC(O)Cc2cccc(I)c2)cc1 (centres unmarked) [4-(2-{2-.[4-(3-iodophenyl)-3-hydroxybutyl]-5-oxopyrazolidin-1-yl}ethyl)benzoic acid, reference compound]
release of ova ([1]; orally, single dose of 20 mg/kg): 10±3 ova | Ki [2, 10]: 14 nM | Ki ([3]; read-out: Ki on EP2): 4450 nM

O=C(O)c1ccc(CCN2C(=O)CCN2CCC(O)Cc2cccc(C(F)(F)F)c2)cc1 (centres unmarked) [4-[2-(2-{3-hydroxy-4-[3-(trifluoromethyl)phenyl]butyl}-5-oxopyrazolidin-1-yl)ethyl]benzoic acid, reference compound]
ED50 [1, 11]: 5 mg/kg | Ki [2, 10]: 23 nM | EC50 ([4]; read-out: EC50 measured as described in Example 84 (EP4)): 0.2 nM

CCCC1([C@H](O)C/C=C/[C@H]2[C@H](O)CC(=O)[C@@H]2CCCCCCC(=O)OC)CCC1 [Butaprost, reference compound]
ED50 [1, 8]: > 30 mg/kg | Ki ([2]; Table 2, read-out: h-EP4 Ki): > 10000 nM

CCCCC[C@H](O)/C=C/[C@H]1CCC(=O)N1CCc1ccc(C(=O)O)cc1 [Example 1, 4-(2-{(2R)-2-[(1E,3S)-3-hydroxyoct-1-enyl]-5-oxopyrrolidin-1-yl}ethyl) benzoic acid]
average of ova obtained ([1]; Group 4: 10 mg/kg s.c.): an average of 25 ova were obtained for Group 4; | average of ova obtained ([1]; Group 5: 30 mg/kg s.c.): an average of 22.4 ova were obtained for Group 5; | ED50 [1, 7]: 22 mg/kg | ED50 [1, 8]: 3.8 mg/kg | ED50 [1, 11]: 3.9 mg/kg | ED50 ([1]; oral, 24 h fasted animals, read-out: calculated ED50, ovulation induction): 21.1 mg/kg | ED50 ([1]; oral, non-fasted animals, read-out: calculated ED50, ovulation induction): 22 mg/kg | activity in the mice ovulation induction model ([1]; subcutaneous (sc), oral (po) and intravenous (iv) routes): active | Ki ([2]; Table 1, read-out: h-EP4 Ki): 2 nM | Ki ([3]; Table 1, read-out: h-EP2 Ki): 120 nM | ED50 ([5]; iv, read-out: calculated effective dose (ED50), bronchoconstriction): ~0.0017 mg/kg | ED50 ([5]; IT route of administration, read-out: calculated ED50, bronchoconstriction): 0.0024 mg/kg | calculated ED50, bronchoconstriction ([5]; IT route of administration): 0.72 μg/GP | effect on blood pressure and heart beat ([5]; i.v., 3 10^−5 up to 0.3 mg/kg): not altering neither blood pressure nor heart beat

O=C(O)c1ccc(CCN2C(=O)CC[C@@H]2/C=C/[C@@H](O)C2(c3ccccc3)CC2)cc1 [Example 7, 4-(2-{(2R)-2-[(1E,3R)-3-hydroxy-3-(1-phenylcyclopropyl)prop-1-enyl]-5 oxopyrrolidin-1-yl}ethyl)benzoic acid]
ED50 [1, 8]: 0.73 mg/kg | Ki ([2]; Table 1, read-out: h-EP4 Ki): 16 nM | Ki ([2]; Table 2, read-out: h-EP4 Ki): 2 nM | Ki ([3]; Table 1, read-out: h-EP2 Ki): 220 nM

O=C(O)c1ccc(CCN2C(=O)CC[C@@H]2/C=C/[C@H](O)C2(c3ccccc3)CC2)cc1 [Example 8, 4-(2-{(2R)-2-[(1E,3S)-3-hydroxy-3-(1-phenylcyclopropyl)prop-1-enyl]-5-oxopyrrolidin-1-yl}ethyl)benzoic acid]
Ki ([2]; Table 1, read-out: h-EP4 Ki): 25 nM | Ki ([3]; Table 1, read-out: h-EP2 Ki): 1930 nM

O=C(O)c1ccc(CCN2C(=O)CC[C@@H]2/C=C/[C@@H](O)Cc2cccc(Cl)c2)cc1 [Example 9, 4-(2-{(2R)-2-[(1E,3S)-3-hydroxy-4-(3-chlorophenyl)but-1-enyl]-5-oxopyrrolidin-1-yl}ethyl)benzoic acid]
ED50 [1, 7]: 1 mg/kg | Ki ([2]; Table 2, read-out: h-EP4 Ki): 0.5 nM | EC50 [4, 9]: 30 nM

CCCCCC[C@H](O)/C=C/[C@H]1CCC(=O)N1CCc1ccc(C(=O)O)cc1 [Example 10, 4-(2-{(2R)-2-[(1E,3S)-3-hydroxynon-1-enyl]-5-oxopyrrolidin-1-yl}ethyl) benzoic acid]
Ki ([2]; Table 2, read-out: h-EP4 Ki): 1 nM

O=C(O)c1ccc(CCN2C(=O)CC[C@@H]2/C=C/[C@@H](O)Cc2ccccc2)cc1 [Example 31, 4-[2-{(2R)-2-[(1E,3S)-3-hydroxy-4-phenylbut-1-enyl]-5-oxopyrrolidin-1-yl}ethyl)benzoic acid]
ID50 [6]: 0.003 mg/kg | ED50 [1, 7]: 1 mg/kg | ED50 [1, 8]: 0.32 mg/kg | Ki ([2]; Table 2, read-out: h-EP4 Ki): 0.05 nM

CCCCC1([C@H](O)/C=C/[C@H]2CCC(=O)N2CCc2ccc(C(=O)O)cc2)CCC1 [Example 45, 4-(2-{(2R)-2-[(1E,3R)-3-(1-butylcyclobutyl)-3-hydroxyprop-1-enyl]-5-oxopyrrolidin-1-yl}ethyl)benzoic acid]
ID50 [6]: 0.010 mg/kg | ED50 [1, 7]: 1 mg/kg | Ki ([2]; Table 2, read-out: h-EP4 Ki): 2 nM | EC50 [4, 9]: 0.3 nM

CCCCC[C@H](O)/C=C/[C@H]1[C@H](O)CC(=O)[C@@H]1C/C=C\CCCC(=O)O [PGE2, reference compound]
average of ova obtained ([1]; Group 3: 13.5 mg/kg): an average of 19.4 ova were obtained for Group 3;

CS(=O)(=O)NC(=O)CCC/C=C\C[C@H]1C(=O)C[C@@H](O)[C@@H]1/C=C/[C@@H](O)COc1ccccc1 [Sulprostone, reference compound]
ED50 [1, 8]: > 27 mg/kg | Ki ([2]; Table 2, read-out: h-EP4 Ki): 7740 nM
